In patent US20220040136A1, “TREATMENT OF VULVOVAGINAL DISORDERS” (University of Rochester, priority 2018, published 2022):

Key:
Assay type in all cases: cell-based
human vulvar fibroblasts [1] = assay: In vitro LPV model: SPM pre-treatment of patient vestibular/vulvar fibroblasts before inflammatory stimulation, IL-6 and PGE2 by ELISA/EIA; details: for prostaglandin E2 (PGE2) production / interleukin-6 (IL-6) production: pre-treated 10 hours with 5 nM SPM, vestibular and external vulvar fibroblasts; for prostaglandin E2 (PGE2) production: then IL-1β 10 pg/ml 48 hr, FIG. 5A; for interleukin-6 (IL-6) production: then bradykinin 100 nM 48 hr, FIG. 5B; for IL-6 production / PGE2 production: pre-treated 18 h at 5 nM, again 30 min prior to activation, IL-1β 10 pg/ml 48 h, booster at 24 h; for IL-6 production: FIG. 23A; for PGE2 production: FIG. 23B; for effect on proinflammatory mediators linked to pain, initial tests: pre-treatment strategy, human vulvar fibroblasts
Protocol: (§1) FIGS. 5A, 5B, 5C, and 5D are a set of diagrams showing that PGE2 and IL-6 production is reduced by SPMs. Patient vestibular or vulvar fibroblasts were pre-treated for 10 hours with Lipoxin A4 (LxA4), Resolvin D2 (RvD2), (7R)-Maresin 1 or epi(7S)-Maresin 1 at a 5 nM concentration, then activated with IL-1β (Panel A; 10 pg/ml) or bradykinin (Panel B; 100 nM) for 48 hr. Culture media were collected and analyzed for PGE2 (Panel A) or IL-6 (Panel B) content. Patient fibroblasts were also activated first with IL-1β for 30 min then treated with 5 nM (7R)-Maresin 1 or LXA4 for 18 hours, followed by a booster dose for 6 hr. Culture media were collected and analyzed for PGE2 (Panel C) or IL-6 (Panel D) content. Mean+/−SEM of n=3, ANOVA *p<0.05 vs. activation only (no SPM).
FIGS. 23A and 23B are diagrams showing six SPMs are effective in reducing IL-6 and PGE2 production from fibroblasts when used as a pre-treatment and post-treatment. Patient vestibular or vulvar fibroblasts were pre-treated for 18 h with Resolvin D3 (RvD3), Resolvin D4 (RvD4), Resolvin D5 (RvD5), Resolvin E1 (RvE1), Protectin D1 or Protectin DX at a 5 nM concentration, pre-treated again for 30 min prior to activation, then activated with 10 pg/ml IL-1β for 48 h with a booster SPM dose at 24 h. Culture media were collected and analyzed for IL-6 (Panel A) and PGE2 (Panel B). Mean+/−SEM of n=6 (two cases run in triplicate), ANOVA *p<0.05 vs. activation only (IL-1b).
(§2) In this example, a fibroblast-based in vitro LPV model was established. Briefly, fibroblast strains were obtained from two regions (FIG. 1) of the lower genital tract of localized provoked vulvodynia (LPV) cases and pain-free controls in the manner described in Falsetta et al. Am J Obstet Gynecol 2015, vol. 213, pp. 38 e1-12 and Foster et al., Pain 2015, vol. 156, pp. 386-96.
(§3) Over 30 paired fibroblast strains obtained from LPV-afflicted cases (fulfilling Friedrich's Criteria)^25 and age/race-matched (critical variables influencing LPV),^26, 27 pain-free controls were obtained. All subjects who contributed to the library were premenopausal, denied oral corticosteroids, non-steroidal, immunomodulatory, or anti-inflammatory medication use, and reported an absence of systemic/cutaneous inflammatory conditions at the time of sample collection. Mechanical pain thresholds were determined (via a method of limits) (0.5-5 N) using a Wagner algometer. Fibroblast identity was confirmed by microscopy and fibroblast markers (vimentin, collagen); only low passage (˜4) cells are used.
(§4) Synthesized, purified and commercially available SPMs from each known SPM class (E-series Resolvins, D-series Resolvins, Maresins, Protectins and Lipoxins) at low/nanomolar concentrations (1-100 nM) were tested. […] The inventors used one of two treatment regimens proven effective in vulvar fibroblasts and other cells: 1) overnight pre-treatment, followed by another treatment 30 min prior to stimulation with proinflammatory stimuli for 48 hr with a third dose of SPMs at 24 hr post-challenge, or 2) post-treatment with SPMs after a 30 min pre-treatment with inflammatory stimuli, followed by a booster dose 18 hr later. Both treatment regimens are of interest, as SPMs are active throughout the inflammatory process.^5-7 Even SPMs administered after LPV onset are likely to prevent the worsening or spread of LPV pain.
Next, SPMs from other classes (E series Resolvins and Protectins), as well as additional SPMs from classes containing members that are effective in reducing IL-6 and PGE2 production (e.g., Maresins) were investigated in similar screen. […] SPMs that were effective in reducing more than one proinflammatory mediator in at least 2 tests can be examined for further testing using a preclinical mouse model. […] These additional effective SPMs include Resolvin D3, Resolvin D4, Resolvin D5, Resolvin E1, Protectin D1, and Protectin DX. […]

human vulvar fibroblasts [2] = assay: In vitro LPV model: SPM post-treatment of already activated patient fibroblasts, IL-6 and PGE2; details: post-treatment: IL-1β 30 min; for IL-6 production / PGE2 production: then 5 nM 18 hours, booster dose 24 hr; for IL-6 production: FIG. 24A; for PGE2 production: FIG. 24B
Protocol: as §1
FIGS. 24A and 24B are diagrams showing that six SPMs are effective in reducing IL-6 and PGE2 production from fibroblasts when used as a post-treatment. Patient vestibular or vulvar fibroblasts were activated first with IL-1β for 30 min then treated with RvD3, RvD4, RvD5, RvE1, Protectin D1 or Protectin DX at a 5 nM concentration for 18 hours, followed by a booster SPM dose for 24 hr. Culture media were collected and analyzed for IL-6 (Panel A) and PGE2 (Panel B) content. Mean+/−SEM of n=6 (two cases run in triplicate), ANOVA *p<0.05 vs. activation only (IL-1b). […] The magnitude of reduction was not as great as pre-treatment, but equally significant as the reduction from pre-treatment regimens.
as §2, §3, §4

Mouse vulvar tissue = assay: Mouse vulvar explants (4 mm punch biopsy), IL-1β-stimulated PGE2 production; details: pre-treatment 18 hours, then IL-1β 10 pg/ml 18 hours; range of doses, as low as 1 nM; FIG. 6
Protocol: FIG. 6 is a diagram showing that SPMs inhibit PGE2 production from mouse vulvar tissue. Mouse vulvar tissue (4 mm punch biopsies) was collected and bisected then pre-treated in culture medium with either Maresin 1 or RvD2 at indicated concentrations for 18 hours, followed by an additional 18 hours stimulation with IL-1β (10 pg/ml). Culture medium was collected and analyzed for PGE2 content. Mean+/−SEM; n=3 replicate cultures. ANOVA * p<0.05 vs. vehicle.
Although SPM structure and therapeutic efficacy is conserved across species,^5-7 inventors first confirmed that mouse vulvar tissues responded to SPM treatment in vitro by culturing mouse vulvar explants (4 mm punch biopsy). The explants were stimulated with IL-1, and then assays were carried to assess the ability of Maresin 1 or RvD2 to reduce PGE2 production under the established pre-treatment regimen.

SMILES	IL-6 production (human vulvar fibroblasts [1])	PGE2 production (human vulvar fibroblasts [1])	IL-6 production (human vulvar fibroblasts [2])	PGE2 production (human vulvar fibroblasts [2])	effect on proinflammatory mediators linked to pain, initial tests (human vulvar fibroblasts [1])	further results
CC/C=C\C/C=C\C[C@H](O)\C=C/C=C/C=C/[C@@H](O)C/C=C\CCC(=O)O [epi-Maresin 1, 7S,14S-docosa-4Z,8E,10E,12Z,16Z,19Z-hexaenoic acid]	–	–	–	–	–	prostaglandin E2 (PGE2) production (human vulvar fibroblasts [1]): significantly reduced; interleukin-6 (IL-6) production (human vulvar fibroblasts [1]): significantly reduced
CC/C=C\C[C@H](O)/C=C/C=C\C=C\[C@@H](O)C/C=C\C/C=C\CCC(=O)O [Protectin DX]	showed efficacy	showed efficacy	showed efficacy	showed efficacy	–	–
CC/C=C\C[C@@H](O)/C=C/C=C\C=C\C=C\[C@@H](O)[C@@H](O)C/C=C\CCC(=O)O [AT-Resolvin D1, 7S,8R,17R-trihydroxy-docosa-4Z,9E,11E,13Z,15E,19Z-hexaenoic acid]	–	–	–	–	no striking effects	–
CC/C=C\C[C@H](O)[C@H](O)/C=C/C=C/C=C\C=C\[C@@H](O)C/C=C\CCC(=O)O [Resolvin D2, 7S,16R,17S-trihydroxy-docosa-4Z,8E,10Z,12E,14E,19Z-hexaenoic acid]	–	–	–	–	–	prostaglandin E2 (PGE2) production (human vulvar fibroblasts [1]): significantly reduced; interleukin-6 (IL-6) production (human vulvar fibroblasts [1]): significantly reduced; PGE2 responses following IL-1β treatment (Mouse vulvar tissue): significantly suppressed
CC/C=C\C[C@H](O)/C=C/C=C\C/C=C\C=C\[C@@H](O)C/C=C\CCC(=O)O [Resolvin D5]	showed efficacy	showed efficacy	showed efficacy	showed efficacy	–	–
CCCCC[C@H](O)[C@H](O)/C=C/C=C/C=C\C=C\[C@@H](O)CCCC(=O)O [Lipoxin B4]	–	–	–	–	no striking effects	–
CC/C=C\C[C@H](O)\C=C/C=C/C=C/[C@H](O)C/C=C\C/C=C\CCC(=O)O [Protectin D1, 10R,17S-dihydroxy-docosa-4Z,7Z,11E,13E,15Z,19Z-hexaenoic acid]	showed efficacy	showed efficacy	showed efficacy	showed efficacy	–	–
CC/C=C\C[C@H](O)/C=C/C=C\C[C@@H](O)/C=C/C=C/C=C\[C@@H](O)CCC(=O)O [Resolvin D3, 4S,11R,17S-trihydroxy-docosa-5Z,7E,9E,13Z,15E,19Z-hexaenoic acid]	showed efficacy	showed efficacy	showed efficacy	showed efficacy	–	–
CC/C=C\C[C@H](O)/C=C/C=C\C=C\C=C\[C@@H](O)[C@@H](O)C/C=C\CCC(=O)O [Resolvin D1, 7S,8R,17S-trihydroxy-docosa-4Z,9E,11E,13Z,15E,19Z-hexaenoic acid]	–	–	–	–	no striking effects	–
CC/C=C\C[C@H](O)/C=C/C=C\C/C=C\C/C=C\C/C=C\CCC(=O)O [17(S)-HDHA, 17(S)-hydroxy docosahexaenoic acid]	–	–	–	–	no striking effects	–
CCCCC[C@H](O)/C=C/C=C\C=C\C=C\[C@@H](O)[C@@H](O)CCCC(=O)O [Lipoxin A4, 5S,6R,15S-trihydroxy-eicosa-7E,9E,11Z,13E-tetraenoic acid]	–	–	–	–	–	prostaglandin E2 (PGE2) production (human vulvar fibroblasts [1]): significantly reduced; interleukin-6 (IL-6) production (human vulvar fibroblasts [1]): significantly reduced; PGE2 levels (human vulvar fibroblasts [2]; then 5 nM SPM 18 hours, booster dose 6 hr, FIG. 5C): significantly reduced; IL-6 levels (human vulvar fibroblasts [2]; then 5 nM SPM 18 hours, booster dose 6 hr, FIG. 5D): significantly reduced
CC[C@@H](O)/C=C/C=C\C[C@@H](O)/C=C/C=C/C=C\[C@@H](O)CCCC(=O)O [Resolvin E1, 5S,12,18-trihydroxy-eicosa-6Z,8E,10E,14Z,16E-pentaenoic acid]	showed efficacy	showed efficacy	showed efficacy	showed efficacy	–	–
CC/C=C\C[C@H](O)/C=C/C=C\C\C=C/C=C/C=C/[C@@H](O)[C@@H](O)CCC(=O)O [Resolvin D4, 4S,5,17S-trihydroxy-docosa-6E,8E,10Z,13Z,15E,19Z-hexaenoic acid]	showed efficacy	showed efficacy	showed efficacy	showed efficacy	–	–
